We go through three molecules from ChEMBL document CHEMBL1148515, “Enantiomerically pure 1,4-benzodiazepine-2,5-diones as Hdm2 antagonists” (Bioorg Med Chem Lett, 2006).

Holding throughout (assay type): functional
For experiment [1], the system named is JAR. As to the kind of experiment: Increase in caspase3/7 production in human JAR cells at 10 uM relative to control.
For experiment [2], the system named is JAR. As to the kind of experiment: Increase in caspase3/7 production in human JAR cells at 50 uM relative to control.
The test system of experiment [3] is JAR. As to the kind of experiment: Increase in caspase3/7 production in human JAR cells at 25 uM relative to control.

For `COCCOCCN1C(=O)[C@H](c2ccc(Cl)cc2)N([C@H](C)c2ccc(Cl)cc2N)C(=O)c2cc(I)ccc21`, the Activity in the experiment with JAR [1] came out at 1.29; in the experiment with JAR [2], 2.92; with JAR [3] it was 2.84.
Consider `C[C@H](c1ccc(Cl)cc1N)N1C(=O)c2cc(I)ccc2N(CCN2CCOCC2)C(=O)[C@@H]1c1ccc(Cl)cc1`, for which the Activity in the experiment on JAR [1] amounted to 0.9; with JAR [2] it was 2.89; in the experiment on JAR [3] it was 2.87.
The matching figures for `C[C@H](c1ccc(Cl)cc1)N1C(=O)c2cc(I)ccc2N(CCCCC(=O)O)C(=O)[C@@H]1c1ccc(Cl)cc1`: 0.97, 1.97 and 1.37.
